Patent US12538922B2, “Composition and methods for parasite control” (priority 2019, dated 2026)
Values joined by “and” are separate entries in the source; they are usually repeats but may differ in a detail not shown here. Equal values may be shown once. Where a name gives a salt, the structure may show the parent alone. Read-outs that look alike come from different tables or passages of the source.

Columns and labels:
[1] = tested on: adult Aedes aegypti mosquitoes; assay: Mosquito repellency assay (landings and time on warm treated surface); assay type: in vivo; details: for Mean probing time [%, compared to control]: 100% = same time as on vehicle-treated surface; for Repellency, % reduction in landings vs vehicle control: repellency as percentage reduction of control, 100% = no landings
Description: The compound of the invention is mixed with ethanol to make a composition that can be applied to a surface and allowed to dry. After the surface is treated with the compounds of the invention and dried, it is heated to human body temperature, and the number of landings and the total time spent by the mosquitoes on the warm surface by adult Aedes aegypti mosquitoes is recorded automatically by machine vision to measure repellency of each compound.
Repellency (based on the number of individual landings on the warm surface) is expressed as a percentage reduction of the control, where the average number of mosquitoes landing on a warm surface treated only with the vehicle solvent is counted. 100% means no mosquitoes landed on the warm surface.
For mosquitoes that still landed on the warm surface, the time spent on the warm surface is also recorded and expressed as a percentage of the control, corresponding to the average time that mosquitoes spent on the same warm surface when treated only with the vehicle solvent. 100% mean that the mosquitoes spent the same time on the treated warm surface as on a warm surface treated only with the vehicle solvent.
Each compound/dose is tested in triplicate using a surface of 18.9 cm2 and 100 microliters of solution without the compound (the placebo) or with the compound dilution spread on the surface, and allowed to dry before the test. The average and standard error on triplicates is calculated. The control (using only vehicle solvent) is run with ethanol. The same population of mosquitoes is exposed first to the warm surface treated with the vehicle solvent, then to the surface treated with the compound. The concentration of the solution comprising the test compound was adjusted to ensure the treatment dosage of the compound is according to the final concentration per surface units area in the table.

[2] = tested on: R. sanguineus tick larvae; details: for Repellence Median (Q1-Q3) [%] / Knockdown Median (Q1-Q3) [%]: pure compound; for Repellence Median (Q1-Q3) [%]: median of replicates; for Knockdown Median (Q1-Q3) [%]: motility reduction over 9 min; for Knockdown Minimum effective concentration / Repellence Minimum effective concentration: smallest concentration with median activity above 50% significance limit
Description: FIG. 1 Schematic representation of the tick repellent test. 30-60 tick larvae are deposited in the non-treated area of a circular arena (8.96 cm^2) whereby one quadrant of the surface (2.25 cm^2) is treated. After 1 minute, the distribution of ticks in the treated and untreated areas is measured for a duration of 2 minutes. The repellent/deterrent effect is expressed in %: 100% means that ticks completely avoided the treated surface. Toxicity is measured in the same setup over a duration of 8 minutes and the mortality is expressed in % motility reduction between the beginning and the end of the 8 minutes. Dosages are expressed as a quantity (mg or molarity) per surface unit (m^2), as the compound or extract is deposited at the bottom of the well. Pure compounds: dose given in micromoles/m^2; Extracts: dose given in micrograms/m^2. Tests were run in triplicates.
The assay is used to evaluate the repellent/deterrent potential of a test compound or extract. The test includes a preliminary assessment of knockdown efficacy as a secondary endpoint. Knockdown can be defined as a state of intoxication and paralysis that usually precedes death (Wickham et al. (1974) Pesticide Science 5(5): 657-664). The test relies on the questing behavior of ticks that explore their habitat to find a suitable host hunting site and their propensity to avoid areas treated with repellent or irritating substances. Tick knockdown is expressed as a reduction in total motility over a defined period of time, and not by collecting and counting the number of dead and live ticks at the end of the exposure period.
Plant extracts or synthetic pure alkaloids diluted in methanol (extracts) or ethanol (alkaloids) were deposited on the bottom of wells in a six-well plate. Only one quadrant ([…]) of the bottom surface of each well was treated. The solvent was left to evaporate. The final concentration of the plant extracts was, therefore, expressed in mg/m^2, or in micromoles per square meter (μmol/m^2) for the synthetic alkaloids. Final concentrations applied for plant extracts were 893 (R. sanguineus adults only), 446, 141, 44.6, 14.1, and 4.46 mg/m^2, and 300, 100, 30, 10, and 3 μmol/m^2 for pure alkaloids. Approximately 50 R. sanguineus tick larvae, and exactly 5 R. sanguineus adults, or 5 I. ricinus nymphs were added to the untreated area of each well. Positive (DEET, commercial tick repellent) and negative (methanol or ethanol) controls were evaluated in parallel. Each concentration tested was run in three or more test replicates. After a 1-min incubation on a heating plate, the frequency of tick movement in the treated quadrant and in each of the untreated quadrants was recorded by machine vision. Tick movement on the untreated surface was computed as the median of movement on the three untreated quadrants. To estimate deterrence recordings were performed over a period of 2 min for R. sanguineus larvae, and for 3 minutes for R. sanguineus adults and I. ricinus nymphs, after the 1-min pre-exposure period. To assess knockdown effect, recording was extended to 9 min (starting at the 1-min pre-exposure period and lasting an additional 8 minutes).
Deterrence activity was calculated as follows: Percent deterrence=1−(movements on treated area/movements on untreated area)×100.
A difference of 50% between total movements recorded in the treated area versus movements recorded in the untreated area was considered significant.
The tick knockdown effect was calculated similarly: Percent knockdown=1−(movements at the end of the imaging period/movements at the beginning of the imaging period)×100.
A difference of 50% between total movements recorded during the 1 min pre-exposure and total movements measured at 9 min of recording was considered significant.

[3] = Table 5, N = 3 subset of Table 4
[4] = Table 5, N = 3 subset of Table 4, dose 3
[5] = Table 5, N = 3 subset of Table 4, dose 30
[6] = Table 5, N = 3 subset of Table 4, dose 300
[7] = concentration 100 μmol/m^2, dihydrochloride

| SMILES | Mean probing time [%, compared to control] ([1]; dose 380 μmol/m^2) [%] | Repellency, % reduction in landings vs vehicle control ([1]; dose 380 μmol/m^2) [%] | MEC (μmol/m^2) [2, 3] [μmol/m^2] | % repellency [2, 5] [%] | % mortality [2, 6] [%] | % repellency [2, 6] [%] | Repellence Median (Q1-Q3) [%] ([2]; concentration 3 μmol/m^2) | Knockdown Median (Q1-Q3) [%] ([2]; concentration 3 μmol/m^2) | Knockdown Median (Q1-Q3) [%] ([2]; concentration 10 μmol/m^2) | Knockdown Median (Q1-Q3) [%] ([2]; concentration 30 μmol/m^2) | Repellence Median (Q1-Q3) [%] ([2]; concentration 300 μmol/m^2) | Knockdown Minimum effective concentration [2] [μmol/m^2] | Repellence Median (Q1-Q3) [%] ([2]; concentration 10 μmol/m^2) | Repellence Median (Q1-Q3) [%] ([2]; concentration 30 μmol/m^2) | Repellence Median (Q1-Q3) [%] ([2]; concentration 100 μmol/m^2) | Knockdown Median (Q1-Q3) [%] ([2]; concentration 100 μmol/m^2) | Knockdown Median (Q1-Q3) [%] ([2]; concentration 300 μmol/m^2) | further results |
| --- | --- | --- | --- | --- | --- | --- | --- | --- | --- | --- | --- | --- | --- | --- | --- | --- | --- | --- |
| C1=CC[C@H](c2cccnc2)NC1 (single isomer, unassigned) [R enantiomer base, R-(+) anatabine] | 2.7 | 77.9 |  |  |  |  |  |  |  |  |  |  |  |  |  |  |  | Mean probing time [%, compared to control] ([1]; dose 75 μmol/m^2): 29.0%; Repellency, % reduction in landings vs vehicle control ([1]; dose 75 μmol/m^2): 68.9% |
| C1=CC[C@@H](c2cccnc2)NC1 (single isomer, unassigned) [S enantiomer base, S-(−) anatabine] | 1.6 | 90.0 |  |  |  |  |  |  |  |  |  |  |  |  |  |  |  | Mean probing time [%, compared to control] ([1]; dose 75 μmol/m^2): 20.6%; Repellency, % reduction in landings vs vehicle control ([1]; dose 75 μmol/m^2): 86.5% |
| C1=CC[C@H](c2cccnc2)NC1 [(R)-anatabine dihydrochloride] | 128.9 | 8.1 | 30 | 62 | 24 | 97 | 20.8 | 0 | 7.5 | 11.1 | 88.3% | 100 |  |  |  |  |  | % repellency [2, 4]: 0%; Repellence Median (Q1-Q3) [%] ([2]; concentration 10 μmol/m^2, dihydrochloride): 34.4%; Repellence Median (Q1-Q3) [%] ([2]; concentration 10 μmol/m^2, listed as (R)-anatabine, dihydrochloride): 34%; Repellence Median (Q1-Q3) [%] ([2]; concentration 30 μmol/m^2, dihydrochloride): 62.0%; Repellence Median (Q1-Q3) [%] ([2]; concentration 30 μmol/m^2, listed as (R)-anatabine, dihydrochloride): 62%; Repellence Median (Q1-Q3) [%] [2, 7]: 84.3%; Repellence Median (Q1-Q3) [%] ([2]; concentration 100 μmol/m^2, listed as (R)-anatabine, dihydrochloride): 84%; Knockdown Median (Q1-Q3) [%] [2, 7]: 54.5%; Knockdown Median (Q1-Q3) [%] ([2]; concentration 300 μmol/m^2, dihydrochloride): 52.7%; Repellence Minimum effective concentration ([2]; dihydrochloride): 30 μmol/m^2; Mean probing time [%, compared to control] ([1]; dose 760 μmol/m^2): 48.5%; Repellency, % reduction in landings vs vehicle control ([1]; dose 760 μmol/m^2): 42.9% |
| c1cncc([C@@H]2CCCCN2)c1 [(S)-anabasine] |  |  | >300 |  | 14 | 9 | 6.6 | 0 | 6.9 | 10.4 | 40.5% | >300 | 42.4% | 46.9% | 58 | 6.0% | 9.5% |  |
| CN1CCC[C@H]1c1cccnc1 [(S)-nicotine] |  |  |  |  |  |  |  | 3.4 | 1.3 | 26.4 |  | 300 |  |  |  | 37% and 37.1% | 95% and 94.5% |  |
| c1cncc([C@@H]2CCCN2)c1 [(S)-nornicotine] |  |  | 300 | 5 | 49 | 70 | 12.3 | 0.7 | 0.4 | 9.9 | 81% and 81.1% | >300 | 35.3% | 27.9% | 42.2 | 9% | 18.7% | % mortality [2, 5]: 11%; Repellence Minimum effective concentration [2]: 300 μmol/m^2 |
| CCN(CC)C(=O)c1cccc(C)c1 [DEET, N,N-Diethyl-m-toluamide] |  |  |  | 26 |  | 100 | 31.1 | 0.7 | 10.0 | 2.4 | 100% | >300 | 57% and 57.3% | 64% and 63.9% | 75.7 | 5.2% | 11.1% | % repellency [2, 4]: 27%; % mortality ([2]; in vivo): 11%; % repellency ([2]; positive control, dose 8.5 (mg/m^2)): 81.6%; Repellence Minimum effective concentration [2]: 10 μmol/m^2; MEC (Repellency) (mg/m^2) ([2]; tobacco extracts and DEET positive control): 8.5 mg/m^2 |
| C1=CCC(c2cccnc2)NC1 (centres unmarked) [anatabine] |  |  |  |  |  |  |  |  |  |  |  |  |  |  |  |  |  | mosquito repellency, base form compared with HCl salt form ([1]; in vivo): significantly better mosquito repellent than in the HCl salt form; time spent by mosquitoes on treated surface, base form compared with HCl salt form ([1]; in vivo): much shorter time |
